Laboratory results: PubChem BioAssay (NCI)
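How tested: cells in 96-well plates exposed to compound for 48 hours at five concentrations. GI50: concentration for 50% inhibition of growth. TGI marks complete inhibition of growth.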

How the values were obtained:
Experiment in all cases: NCI tumour cell line growth inhibition, 48 h; in the data active = GI50 below about 0.43 µM; inactive = the rest
786-0 renal = tested on: 786-0 renal
A498 renal = tested on: A498 renal
A549 NSCLC = tested on: A549 NSCLC
CAKI-1 renal = tested on: CAKI-1 renal
CCRF-CEM leukemia = tested on: CCRF-CEM leukemia
COLO 205 colon = tested on: COLO 205 colon
DU-145 prostate = tested on: DU-145 prostate
HL-60(TB) leukemia = tested on: HL-60(TB) leukemia
HOP-62 NSCLC = tested on: HOP-62 NSCLC
HOP-92 NSCLC = tested on: HOP-92 NSCLC
HS 578T breast = tested on: HS 578T breast
IGROV1 ovarian = tested on: IGROV1 ovarian
K-562 leukemia = tested on: K-562 leukemia
MALME-3M melanoma = tested on: MALME-3M melanoma
MCF7 breast = tested on: MCF7 breast
MDA-MB-231 breast = tested on: MDA-MB-231 breast
MOLT-4 leukemia = tested on: MOLT-4 leukemia
NCI-H226 lung = tested on: NCI-H226 lung
NCI-H23 lung = tested on: NCI-H23 lung
NCI-H460 lung = tested on: NCI-H460 lung
NCI/ADR-RES ovarian = tested on: NCI/ADR-RES ovarian
OVCAR-3 ovarian = tested on: OVCAR-3 ovarian
OVCAR-4 ovarian = tested on: OVCAR-4 ovarian
OVCAR-5 ovarian = tested on: OVCAR-5 ovarian
OVCAR-8 ovarian = tested on: OVCAR-8 ovarian
PC-3 prostate = tested on: PC-3 prostate
RXF 393 renal = tested on: RXF 393 renal
SF-268 CNS = tested on: SF-268 CNS
SF-295 CNS = tested on: SF-295 CNS
SK-MEL-2 melanoma = tested on: SK-MEL-2 melanoma
SK-OV-3 ovarian = tested on: SK-OV-3 ovarian
SN12C renal = tested on: SN12C renal
SNB-75 CNS = tested on: SNB-75 CNS
SW-620 colon = tested on: SW-620 colon
TK-10 renal = tested on: TK-10 renal
UACC-257 melanoma = tested on: UACC-257 melanoma
ACHN renal = tested on: ACHN renal
BT-549 breast = tested on: BT-549 breast
EKVX NSCLC = tested on: EKVX NSCLC
HCC-2998 colon = tested on: HCC-2998 colon
HCT-116 colon = tested on: HCT-116 colon
HCT-15 colon = tested on: HCT-15 colon
HT29 colon = tested on: HT29 colon
KM12 colon = tested on: KM12 colon
LOX IMVI melanoma = tested on: LOX IMVI melanoma
M14 melanoma = tested on: M14 melanoma
MDA-MB-435 = tested on: MDA-MB-435
NCI-H522 lung = tested on: NCI-H522 lung
RPMI-8226 leukemia = tested on: RPMI-8226 leukemia
SF-539 CNS = tested on: SF-539 CNS
SK-MEL-28 melanoma = tested on: SK-MEL-28 melanoma
SK-MEL-5 melanoma = tested on: SK-MEL-5 melanoma
SNB-19 CNS = tested on: SNB-19 CNS
SR leukemia = tested on: SR leukemia
U251 CNS = tested on: U251 CNS
UACC-62 melanoma = tested on: UACC-62 melanoma
UO-31 renal = tested on: UO-31 renal

COc1ccc(C(=O)c2cc(OC)c(OC)c(OC)c2)cc1/C=C/C(=O)c1ccc2c(c1)OCO2
> 100 µM: TGI (A549 NSCLC) | TGI (CAKI-1 renal) | TGI (CCRF-CEM leukemia) | TGI (COLO 205 colon) | TGI (DU-145 prostate) | TGI (HL-60(TB) leukemia) | TGI (HS 578T breast) | TGI (K-562 leukemia) | TGI (MCF7 breast) | TGI (MOLT-4 leukemia) | TGI (NCI-H460 lung) | TGI (OVCAR-4 ovarian) | TGI (PC-3 prostate) | TGI (SF-268 CNS) | TGI (SN12C renal) | TGI (UACC-257 melanoma)
14.1 µM: TGI (IGROV1 ovarian)
8.22 µM: TGI (NCI-H23 lung)
16.7 µM: TGI (A498 renal)
19.5 µM: TGI (HOP-62 NSCLC)
4.21 µM: TGI (RXF 393 renal)
5.84 µM: TGI (786-0 renal)
7.24 µM: TGI (OVCAR-3 ovarian)
35.4 µM: TGI (HOP-92 NSCLC)
14.7 µM: TGI (TK-10 renal)
15.6 µM: TGI (SNB-75 CNS)
54.3 µM: TGI (MDA-MB-231 breast)
13.1 µM: TGI (OVCAR-8 ovarian)
7.47 µM: TGI (SK-MEL-2 melanoma)
inactive: GI50 (786-0 renal) 2.28 µM | GI50 (A498 renal) 2.43 µM | GI50 (A549 NSCLC) 4.39 µM | GI50 (CAKI-1 renal) 2.56 µM | GI50 (CCRF-CEM leukemia) 0.583 µM | GI50 (COLO 205 colon) 3.51 µM | GI50 (DU-145 prostate) 4.25 µM | GI50 (HL-60(TB) leukemia) 2.16 µM | GI50 (HOP-62 NSCLC) 4.4 µM | GI50 (HOP-92 NSCLC) 12 µM | GI50 (HS 578T breast) 4.56 µM | GI50 (IGROV1 ovarian) 3.52 µM | GI50 (MALME-3M melanoma) 2.38 µM | GI50 (MDA-MB-231 breast) 2.35 µM | GI50 (MOLT-4 leukemia) 1.61 µM | GI50 (NCI-H226 lung) 2.23 µM | GI50 (NCI-H23 lung) 2.67 µM | GI50 (NCI-H460 lung) 3.09 µM | GI50 (NCI/ADR-RES ovarian) 1.46 µM | GI50 (OVCAR-3 ovarian) 1.96 µM | GI50 (OVCAR-4 ovarian) 5.05 µM | GI50 (OVCAR-5 ovarian) 2.64 µM | GI50 (OVCAR-8 ovarian) 2.32 µM | GI50 (PC-3 prostate) 4.1 µM | GI50 (RXF 393 renal) 1.94 µM | GI50 (SF-268 CNS) 2.95 µM | GI50 (SF-295 CNS) 3.43 µM | GI50 (SK-MEL-2 melanoma) 2.81 µM | GI50 (SK-OV-3 ovarian) 5.7 µM | GI50 (SN12C renal) 3.07 µM | GI50 (SNB-75 CNS) 3.11 µM | GI50 (TK-10 renal) 3.92 µM | GI50 (UACC-257 melanoma) 3.55 µM
active: GI50 (K-562 leukemia) 0.377 µM | GI50 (MCF7 breast) 0.381 µM | GI50 (SW-620 colon) 0.396 µM
3.77 µM: TGI (SW-620 colon)
17.2 µM: TGI (SF-295 CNS)
15.2 µM: TGI (NCI/ADR-RES ovarian)
6.61 µM: TGI (MALME-3M melanoma)
8.19 µM: TGI (OVCAR-5 ovarian)
41.1 µM: TGI (SK-OV-3 ovarian)
6.32 µM: TGI (NCI-H226 lung)

CCC(C)C(NC(=O)c1c2ccccc2nc2ccccc12)C(=O)O (stereo unspecified)
94.1 µM: TGI (BT-549 breast)
> 100 µM: TGI (786-0 renal) | TGI (A498 renal) | TGI (A549 NSCLC) | TGI (ACHN renal) | TGI (CAKI-1 renal) | TGI (CCRF-CEM leukemia) | TGI (COLO 205 colon) | TGI (DU-145 prostate) | TGI (EKVX NSCLC) | TGI (HCC-2998 colon) | TGI (HCT-116 colon) | TGI (HCT-15 colon) | TGI (HOP-62 NSCLC) | TGI (HOP-92 NSCLC) | TGI (HT29 colon) | TGI (IGROV1 ovarian) | TGI (K-562 leukemia) | TGI (KM12 colon) | TGI (LOX IMVI melanoma) | TGI (M14 melanoma) | TGI (MALME-3M melanoma) | TGI (MCF7 breast) | TGI (MDA-MB-231 breast) | TGI (MDA-MB-435) | TGI (MOLT-4 leukemia) | TGI (NCI-H226 lung) | TGI (NCI-H23 lung) | TGI (NCI-H460 lung) | TGI (NCI-H522 lung) | TGI (NCI/ADR-RES ovarian) | TGI (OVCAR-3 ovarian) | TGI (OVCAR-4 ovarian) | TGI (OVCAR-5 ovarian) | TGI (OVCAR-8 ovarian) | TGI (PC-3 prostate) | TGI (RPMI-8226 leukemia) | TGI (SF-268 CNS) | TGI (SF-295 CNS) | TGI (SF-539 CNS) | TGI (SK-MEL-2 melanoma) | TGI (SK-MEL-28 melanoma) | TGI (SK-MEL-5 melanoma) | TGI (SK-OV-3 ovarian) | TGI (SN12C renal) | TGI (SNB-19 CNS) | TGI (SNB-75 CNS) | TGI (SR leukemia) | TGI (SW-620 colon) | TGI (TK-10 renal) | TGI (U251 CNS) | TGI (UACC-257 melanoma) | TGI (UACC-62 melanoma) | TGI (UO-31 renal)
